According to patent US20180022786A1, “NOVEL SODIUM CHANNEL BLOCKING PEPTIDES AND THE USE THEREOF” (priority 2012, published 2018):
Like-named read-outs stand apart in the source and are kept apart here.

Columns and labels:
Nav1.7 [1] = biological target: T1, Nav1.7 (Homo sapiens, UniProt Q15858); assay: cell-based
Nav1.7 [2] = biological target: T1, Nav1.7; conditions: Table 2, natural toxins, from WO 2012/004664 A2; cited from earlier work
Target sequence in this assay (Q15858 whole entry): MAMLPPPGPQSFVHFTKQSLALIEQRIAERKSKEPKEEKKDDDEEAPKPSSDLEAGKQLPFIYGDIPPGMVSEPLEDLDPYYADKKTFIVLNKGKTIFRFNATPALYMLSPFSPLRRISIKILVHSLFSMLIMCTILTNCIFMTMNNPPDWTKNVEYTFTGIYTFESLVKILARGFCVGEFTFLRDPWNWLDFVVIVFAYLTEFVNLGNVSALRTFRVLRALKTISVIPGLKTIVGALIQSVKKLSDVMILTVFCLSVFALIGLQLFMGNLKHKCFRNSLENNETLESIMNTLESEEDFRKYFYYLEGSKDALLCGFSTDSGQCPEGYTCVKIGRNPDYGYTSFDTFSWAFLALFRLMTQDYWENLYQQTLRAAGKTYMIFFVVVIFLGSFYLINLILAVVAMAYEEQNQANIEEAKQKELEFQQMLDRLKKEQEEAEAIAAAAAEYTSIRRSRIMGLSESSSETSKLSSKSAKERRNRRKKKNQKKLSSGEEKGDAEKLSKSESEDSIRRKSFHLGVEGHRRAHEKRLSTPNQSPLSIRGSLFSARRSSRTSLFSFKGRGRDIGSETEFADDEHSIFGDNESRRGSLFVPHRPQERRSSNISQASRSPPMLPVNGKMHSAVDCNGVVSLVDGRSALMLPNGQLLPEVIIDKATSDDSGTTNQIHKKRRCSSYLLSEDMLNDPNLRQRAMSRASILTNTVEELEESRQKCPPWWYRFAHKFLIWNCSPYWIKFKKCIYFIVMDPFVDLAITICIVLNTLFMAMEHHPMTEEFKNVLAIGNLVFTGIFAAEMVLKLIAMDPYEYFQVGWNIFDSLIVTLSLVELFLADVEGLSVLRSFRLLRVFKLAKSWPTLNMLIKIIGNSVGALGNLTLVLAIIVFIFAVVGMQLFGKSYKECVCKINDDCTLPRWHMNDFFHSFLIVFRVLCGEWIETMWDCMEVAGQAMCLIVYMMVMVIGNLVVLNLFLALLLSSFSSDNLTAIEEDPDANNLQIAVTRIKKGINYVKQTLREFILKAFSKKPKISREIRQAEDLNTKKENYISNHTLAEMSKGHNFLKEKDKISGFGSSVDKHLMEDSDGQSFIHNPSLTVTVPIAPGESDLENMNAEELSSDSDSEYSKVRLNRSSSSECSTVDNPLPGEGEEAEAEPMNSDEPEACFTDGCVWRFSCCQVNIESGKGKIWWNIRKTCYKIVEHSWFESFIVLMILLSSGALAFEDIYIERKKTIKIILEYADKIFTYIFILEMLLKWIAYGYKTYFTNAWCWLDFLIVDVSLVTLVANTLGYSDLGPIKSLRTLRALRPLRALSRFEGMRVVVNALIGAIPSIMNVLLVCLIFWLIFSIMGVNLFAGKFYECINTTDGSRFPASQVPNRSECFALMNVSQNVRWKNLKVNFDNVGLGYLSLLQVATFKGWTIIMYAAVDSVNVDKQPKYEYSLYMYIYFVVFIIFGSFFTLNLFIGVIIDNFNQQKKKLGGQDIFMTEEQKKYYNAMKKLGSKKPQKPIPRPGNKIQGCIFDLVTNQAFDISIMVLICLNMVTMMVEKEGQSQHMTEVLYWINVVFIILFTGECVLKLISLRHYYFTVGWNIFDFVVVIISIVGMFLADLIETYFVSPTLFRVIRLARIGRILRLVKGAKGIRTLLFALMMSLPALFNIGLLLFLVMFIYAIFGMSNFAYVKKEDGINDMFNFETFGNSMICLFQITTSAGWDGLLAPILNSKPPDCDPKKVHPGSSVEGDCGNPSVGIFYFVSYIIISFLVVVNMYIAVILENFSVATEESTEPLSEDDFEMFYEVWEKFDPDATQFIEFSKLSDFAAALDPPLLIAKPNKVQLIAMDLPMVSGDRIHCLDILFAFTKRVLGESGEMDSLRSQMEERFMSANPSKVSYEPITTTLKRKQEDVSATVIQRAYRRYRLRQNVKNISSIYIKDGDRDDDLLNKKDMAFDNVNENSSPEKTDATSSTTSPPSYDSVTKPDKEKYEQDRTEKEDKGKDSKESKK

Nav1.2 [3] = biological target: T2, Nav1.2 (Rattus norvegicus, UniProt P04775); conditions: cited from earlier work
T2 sequence (P04775 whole entry): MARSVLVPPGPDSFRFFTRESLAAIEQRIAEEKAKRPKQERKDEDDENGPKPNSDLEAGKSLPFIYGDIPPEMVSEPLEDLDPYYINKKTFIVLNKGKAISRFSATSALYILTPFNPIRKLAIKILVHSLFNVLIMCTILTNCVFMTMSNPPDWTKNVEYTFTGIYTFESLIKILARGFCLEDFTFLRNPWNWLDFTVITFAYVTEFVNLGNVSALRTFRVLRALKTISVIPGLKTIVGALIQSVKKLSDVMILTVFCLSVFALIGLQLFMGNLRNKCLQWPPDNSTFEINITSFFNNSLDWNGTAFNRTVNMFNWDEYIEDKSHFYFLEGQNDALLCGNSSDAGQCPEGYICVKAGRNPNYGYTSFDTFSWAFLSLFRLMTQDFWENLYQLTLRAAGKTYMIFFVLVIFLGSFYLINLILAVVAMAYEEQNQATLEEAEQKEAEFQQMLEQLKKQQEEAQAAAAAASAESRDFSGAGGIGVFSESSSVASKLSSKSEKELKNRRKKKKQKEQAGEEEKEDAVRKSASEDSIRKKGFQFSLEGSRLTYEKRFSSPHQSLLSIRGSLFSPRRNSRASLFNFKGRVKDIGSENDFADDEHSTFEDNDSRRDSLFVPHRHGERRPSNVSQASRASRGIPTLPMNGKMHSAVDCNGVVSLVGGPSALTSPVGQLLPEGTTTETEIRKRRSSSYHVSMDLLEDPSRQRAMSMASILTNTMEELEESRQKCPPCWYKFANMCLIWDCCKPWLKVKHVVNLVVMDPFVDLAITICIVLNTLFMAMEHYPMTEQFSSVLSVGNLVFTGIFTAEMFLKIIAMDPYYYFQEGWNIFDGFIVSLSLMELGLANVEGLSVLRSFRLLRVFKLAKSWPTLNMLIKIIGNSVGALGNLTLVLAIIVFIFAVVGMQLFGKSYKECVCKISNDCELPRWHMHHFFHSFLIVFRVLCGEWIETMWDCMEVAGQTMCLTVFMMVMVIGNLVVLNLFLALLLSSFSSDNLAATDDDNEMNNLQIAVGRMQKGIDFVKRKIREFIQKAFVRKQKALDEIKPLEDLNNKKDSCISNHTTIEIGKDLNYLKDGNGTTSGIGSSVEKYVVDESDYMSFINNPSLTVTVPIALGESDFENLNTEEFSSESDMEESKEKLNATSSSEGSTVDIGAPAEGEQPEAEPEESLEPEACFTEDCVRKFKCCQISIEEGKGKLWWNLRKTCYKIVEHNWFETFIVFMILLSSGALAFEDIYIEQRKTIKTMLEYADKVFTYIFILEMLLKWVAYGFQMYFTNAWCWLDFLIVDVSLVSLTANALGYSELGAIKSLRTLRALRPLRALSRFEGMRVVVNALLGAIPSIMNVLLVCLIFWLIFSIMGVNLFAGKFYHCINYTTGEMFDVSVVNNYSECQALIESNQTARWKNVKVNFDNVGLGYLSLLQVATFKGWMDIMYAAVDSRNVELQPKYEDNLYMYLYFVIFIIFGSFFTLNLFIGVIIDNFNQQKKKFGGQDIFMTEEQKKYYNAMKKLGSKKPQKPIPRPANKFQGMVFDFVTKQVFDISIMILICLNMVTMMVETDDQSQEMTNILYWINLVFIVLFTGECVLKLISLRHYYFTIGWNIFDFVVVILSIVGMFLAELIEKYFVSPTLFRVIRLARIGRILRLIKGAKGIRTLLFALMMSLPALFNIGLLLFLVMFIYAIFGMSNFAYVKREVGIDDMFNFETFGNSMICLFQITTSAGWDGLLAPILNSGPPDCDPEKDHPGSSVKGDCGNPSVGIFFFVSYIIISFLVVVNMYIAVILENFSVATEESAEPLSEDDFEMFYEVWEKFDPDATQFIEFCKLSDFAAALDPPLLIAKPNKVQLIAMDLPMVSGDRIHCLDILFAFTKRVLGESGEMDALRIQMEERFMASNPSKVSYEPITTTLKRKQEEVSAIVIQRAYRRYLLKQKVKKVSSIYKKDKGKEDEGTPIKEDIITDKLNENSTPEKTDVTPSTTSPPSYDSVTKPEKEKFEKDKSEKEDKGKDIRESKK

Nav1.9 = Nav1.9 (Homo sapiens, UniProt Q9UI33); conditions: read-out: TTX IC50; cited from earlier work
Nav1.1 = Nav1.1 (Homo sapiens, UniProt P35498); conditions: read-out: TTX IC50; cited from earlier work
Nav1.2 [4] = biological target: Nav1.2 (Homo sapiens, UniProt Q99250); conditions: read-out: TTX IC50; cited from earlier work
Nav1.6 = Nav1.6 (Homo sapiens, UniProt Q9UQD0); conditions: read-out: TTX IC50; cited from earlier work
Nav1.8 = Nav1.8 (Homo sapiens, UniProt Q9Y5Y9); conditions: read-out: TTX IC50; cited from earlier work
Nav1.3 = Nav1.3 (Homo sapiens, UniProt Q9NY46); conditions: read-out: TTX IC50; cited from earlier work
Nav1.2 [5] = biological target: T2, Nav1.2; assay: cell-based; conditions: EP (electrophysiology)
[6] = FLIPR, read-out: Nav1.7 IC50 FLIPR
[7] = Table 2, natural toxins, from WO 2012/004664 A2

Compound | IC50 (Nav1.7 [1]; [6]) | IC50 (Nav1.7 [2]) | IC50 (Nav1.2 [3]; [7]) | further results
CNC(=O)[C@H](Cc1c[nH]c2ccccc12)NC(=O)[C@H](CC(C)C)NC(=O)[C@H](CCCCN)NC(=O)[C@H](CCCCN)NC(=O)[C@H](CCCCN)NC(=O)[C@@H]1CSSC[C@@H]2NC(=O)[C@H](CCCCN)NC(=O)[C@H](CCCNC(=N)N)NC(=O)[C@H](CCC(=O)O)NC(=O)[C@H](CO)NC(=O)[C@H](CC(=O)O)NC(=O)[C@@H]3CSSC[C@H](NC(=O)[C@H](C(C)C)NC(=O)[C@H](CCSC)NC(=O)CNC(=O)[C@H](CCC(=O)O)NC(=O)[C@H](CSSC[C@H](NC(=O)[C@@H](N)Cc4ccc(O)cc4)C(=O)N[C@@H](CCC(N)=O)C(=O)N[C@@H](CCCCN)C(=O)N[C@@H](Cc4c[nH]c5ccccc45)C(=O)N[C@@H](CCSC)C(=O)N[C@@H](Cc4c[nH]c5ccccc45)C(=O)N[C@@H]([C@@H](C)O)C(=O)N3)NC2=O)C(=O)N[C@@H](CCCNC(=N)N)C(=O)N[C@@H](CC(C)C)C(=O)N[C@@H](Cc2c[nH]c3ccccc23)C(=O)N1 [Protoxin II-NHMe] | 64.3 nM |  |  | 
CSCC[C@@H]1NC(=O)CNC(=O)[C@H](CCC(=O)O)NC(=O)[C@@H]2CSSC[C@H](NC(=O)[C@@H](N)Cc3ccc(O)cc3)C(=O)N[C@@H](CCC(N)=O)C(=O)N[C@@H](CCCCN)C(=O)N[C@@H](Cc3c[nH]c4ccccc34)C(=O)N[C@@H](CCSC)C(=O)N[C@@H](Cc3c[nH]c4ccccc34)C(=O)N[C@@H]([C@@H](C)O)C(=O)N[C@H]3CSSC[C@H](NC(=O)[C@H](C(C)C)NC1=O)C(=O)N[C@@H](CCCNC(=N)N)C(=O)N[C@@H](CC(C)C)C(=O)N[C@@H](Cc1c[nH]c4ccccc14)C(=O)N[C@H](C(=O)N[C@@H](CCCCN)C(=O)N[C@@H](CCCCN)C(=O)N[C@@H](CCCCN)C(=O)N[C@@H](CC(C)C)C(=O)N[C@@H](Cc1c[nH]c4ccccc14)C(=O)N[C@H](Cc1c[nH]c4ccccc14)C(=O)O)CSSC[C@H](NC(=O)[C@H](CCCCN)NC(=O)[C@H](CCCNC(=N)N)NC(=O)[C@H](CCC(=O)O)NC(=O)[C@H](CO)NC(=O)[C@H](CC(=O)O)NC3=O)C(=O)N2 [Protoxin II-D-Trp] | 16.5 nM |  |  | 
YCQKWMWTCDSKRKCCEDMVCQLWCKKRL [GrTx I] |  | 1010 nM | 2690 nM | 
COC(=O)[C@H](Cc1c[nH]c2ccccc12)NC(=O)[C@H](CC(C)C)NC(=O)[C@H](CCCCN)NC(=O)[C@H](CCCCN)NC(=O)[C@H](CCCCN)NC(=O)[C@@H]1CSSC[C@@H]2NC(=O)[C@H](CCCCN)NC(=O)[C@H](CCCNC(=N)N)NC(=O)[C@H](CCC(=O)O)NC(=O)[C@H](CO)NC(=O)[C@H](CC(=O)O)NC(=O)[C@@H]3CSSC[C@H](NC(=O)[C@H](C(C)C)NC(=O)[C@H](CCSC)NC(=O)CNC(=O)[C@H](CCC(=O)O)NC(=O)[C@H](CSSC[C@H](NC(=O)[C@@H](N)Cc4ccc(O)cc4)C(=O)N[C@@H](CCC(N)=O)C(=O)N[C@@H](CCCCN)C(=O)N[C@@H](Cc4c[nH]c5ccccc45)C(=O)N[C@@H](CCSC)C(=O)N[C@@H](Cc4c[nH]c5ccccc45)C(=O)N[C@@H]([C@@H](C)O)C(=O)N3)NC2=O)C(=O)N[C@@H](CCCNC(=N)N)C(=O)N[C@@H](CC(C)C)C(=O)N[C@@H](Cc2c[nH]c3ccccc23)C(=O)N1 [Protoxin II-OMe] | 8.4 nM |  |  | 
NC1=N[C@H](O)[C@H]2[C@H]3O[C@]4(O)O[C@@H]([C@@H](O)[C@@]2(N1)[C@@H]4O)[C@]3(O)CO [TTX, tetrodotoxin] |  |  |  | IC50 (Nav1.9): 1000 nM; IC50 (Nav1.1): 10 nM; IC50 (Nav1.2 [4]): 10 nM; IC50 (Nav1.6): 6 nM; IC50 (Nav1.8): 50000 nM; IC50 (Nav1.3): 15 nM
CSCC[C@@H]1NC(=O)CNC(=O)[C@H](CCC(=O)O)NC(=O)[C@@H]2CSSC[C@H](NC(=O)[C@@H](N)Cc3ccc(O)cc3)C(=O)N[C@@H](CCC(N)=O)C(=O)N[C@@H](CCCCN)C(=O)N[C@@H](Cc3c[nH]c4ccccc34)C(=O)N[C@@H](CCSC)C(=O)N[C@@H](Cc3c[nH]c4ccccc34)C(=O)N[C@@H]([C@@H](C)O)C(=O)N[C@H]3CSSC[C@H](NC(=O)[C@H](C(C)C)NC1=O)C(=O)N[C@@H](CCCNC(=N)N)C(=O)N[C@@H](CC(C)C)C(=O)N[C@@H](Cc1c[nH]c4ccccc14)C(=O)N[C@H](C(=O)N[C@@H](CCCCN)C(=O)N[C@@H](CCCCN)C(=O)N[C@@H](CCCCN)C(=O)N[C@@H](CC(C)C)C(=O)N[C@@H](Cc1c[nH]c4ccccc14)C(=O)O)CSSC[C@H](NC(=O)[C@H](CCCCN)NC(=O)[C@H](CCCNC(=N)N)NC(=O)[C@H](CCC(=O)O)NC(=O)[C@H](CO)NC(=O)[C@H](CC(=O)O)NC3=O)C(=O)N2 [Protoxin II] |  |  |  | IC50 (Nav1.2 [5]): 100 nM
YCQKWMWTCDEERKCCEGLVCRLWCKRIINM [GsMTx II/PaTX II] |  | 260 nM | 2700 nM | 
CSCC[C@@H]1NC(=O)CNC(=O)[C@H](CCC(=O)O)NC(=O)[C@@H]2CSSC[C@H](NC(=O)[C@@H](N)Cc3ccc(O)cc3)C(=O)N[C@@H](CCC(N)=O)C(=O)N[C@@H](CCCCN)C(=O)N[C@@H](Cc3c[nH]c4ccccc34)C(=O)N[C@@H](CCSC)C(=O)N[C@@H](Cc3c[nH]c4ccccc34)C(=O)N[C@@H]([C@@H](C)O)C(=O)N[C@H]3CSSC[C@H](NC(=O)[C@H](C(C)C)NC1=O)C(=O)N[C@@H](CCCNC(=N)N)C(=O)N[C@@H](CC(C)C)C(=O)N[C@@H](Cc1c[nH]c4ccccc14)C(=O)N[C@H](C(=O)N[C@@H](CCCCN)C(=O)N[C@@H](CCCCN)C(=O)N[C@@H](CCCCN)C(=O)N[C@@H](CC(C)C)C(=O)N[C@@H](Cc1c[nH]c4ccccc14)C(=O)Nc1ccccc1)CSSC[C@H](NC(=O)[C@H](CCCCN)NC(=O)[C@H](CCCNC(=N)N)NC(=O)[C@H](CCC(=O)O)NC(=O)[C@H](CO)NC(=O)[C@H](CC(=O)O)NC3=O)C(=O)N2 [Protoxin II-NHanaline] |  |  |  | IC50 (Nav1.7 [1]): 5.1 nM
YCQKWMWTCDEERKCCEGLVCRLWCKKKIEW [GsAF II] |  | 70 nM | 410 ± 20 nM | 
YCQKWMWTCDSKRACCEGLRCKLWCRKII [JzTx V] |  |  | 157 ± 20 nM | 
CSCC[C@@H]1NC(=O)CNC(=O)[C@H](CCC(=O)O)NC(=O)[C@@H]2CSSC[C@H](NC(=O)[C@@H](N)Cc3ccc(O)cc3)C(=O)N[C@@H](CCC(N)=O)C(=O)N[C@@H](CCCCN)C(=O)N[C@@H](Cc3c[nH]c4ccccc34)C(=O)N[C@@H](CCSC)C(=O)N[C@@H](Cc3c[nH]c4ccccc34)C(=O)N[C@@H]([C@@H](C)O)C(=O)N[C@H]3CSSC[C@H](NC(=O)[C@H](C(C)C)NC1=O)C(=O)N[C@@H](CCCNC(=N)N)C(=O)N[C@@H](CC(C)C)C(=O)N[C@@H](Cc1c[nH]c4ccccc14)C(=O)N[C@H](C(=O)N[C@@H](CCCCN)C(=O)N[C@@H](CCCCN)C(=O)N[C@@H](CCCCN)C(=O)N[C@@H](CC(C)C)C(=O)N[C@H](Cc1c[nH]c4ccccc14)C(=O)NC1CCCCC1)CSSC[C@H](NC(=O)[C@H](CCCCN)NC(=O)[C@H](CCCNC(=N)N)NC(=O)[C@H](CCC(=O)O)NC(=O)[C@H](CO)NC(=O)[C@H](CC(=O)O)NC3=O)C(=O)N2 [Protoxin II (D)-NHcyclohexyl] | 31 nM |  |  | 
CSCC[C@@H]1NC(=O)CNC(=O)[C@H](CCC(=O)O)NC(=O)[C@@H]2CSSC[C@H](NC(=O)[C@@H](N)Cc3ccc(O)cc3)C(=O)N[C@@H](CCC(N)=O)C(=O)N[C@@H](CCCCN)C(=O)N[C@@H](Cc3c[nH]c4ccccc34)C(=O)N[C@@H](CCSC)C(=O)N[C@@H](Cc3c[nH]c4ccccc34)C(=O)N[C@@H]([C@@H](C)O)C(=O)N[C@H]3CSSC[C@H](NC(=O)[C@H](C(C)C)NC1=O)C(=O)N[C@@H](CCCNC(=N)N)C(=O)N[C@@H](CC(C)C)C(=O)N[C@@H](Cc1c[nH]c4ccccc14)C(=O)N[C@H](C(=O)N[C@@H](CCCCN)C(=O)N[C@@H](CCCCN)C(=O)N[C@@H](CCCCN)C(=O)N[C@@H](CC(C)C)C(=O)N[C@@H](Cc1c[nH]c4ccccc14)C(=O)NC1CCCCC1)CSSC[C@H](NC(=O)[C@H](CCCCN)NC(=O)[C@H](CCCNC(=N)N)NC(=O)[C@H](CCC(=O)O)NC(=O)[C@H](CO)NC(=O)[C@H](CC(=O)O)NC3=O)C(=O)N2 [Protoxin II-NHcyclohexyl] | 22 nM |  |  | 
YCQKWMWTCDSERKCCEGYVCELWCKYNL [JxTx XII] |  |  |  | IC50 (Nav1.2 [3]): 73900 nM
YCQKWMWTCDEERKCCEGLVCRLWCKKKIEEG [VsTx II] |  | 9260 nM | 42400 nM | 
YCQKWLWTCDSERKCCEDMVCRLWCKKRL [GsAF I] |  | 249 nM | 255 ± 43 nM | 
YCQKWMWTCDSARKCCEGLVCRLWCKKII [PaTx I] |  |  |  | IC50 (Nav1.2 [3]): 5000 nM
